Reference: US10815230B2, “Casein kinase 1 delta inhibitor” (ELECTROPHORETICS LIMITED, priority 2015, dated 2020)

Assays:
Test in all cases: KINOMEscan binding assay
Details in all cases: read-out: % Ctrl @ 10000 nM
PFTAIRE2 = PFTAIRE2 (Homo sapiens, UniProt Q96Q40)
ACVR1 = ACVR1 (Homo sapiens, UniProt Q04771)
FER = FER (Homo sapiens, UniProt P16591)
BRAF = BRAF (Homo sapiens, UniProt P15056)
BRSK2 = BRSK2 (Homo sapiens, UniProt Q8IWQ3)
ERK2 = ERK2 (Homo sapiens, UniProt P28482)
CSNK2A2 = CSNK2A2 (Homo sapiens, UniProt P19784)
PAK6 = PAK6 (Homo sapiens, UniProt Q9NQU5)
YANK3 = target: T1, YANK3 (Homo sapiens, UniProt Q86UX6)
T1 construct: purchased DiscoveRx (KINOMEscan, LeadHunter Discovery services)
T1 sequence (Q86UX6 whole entry): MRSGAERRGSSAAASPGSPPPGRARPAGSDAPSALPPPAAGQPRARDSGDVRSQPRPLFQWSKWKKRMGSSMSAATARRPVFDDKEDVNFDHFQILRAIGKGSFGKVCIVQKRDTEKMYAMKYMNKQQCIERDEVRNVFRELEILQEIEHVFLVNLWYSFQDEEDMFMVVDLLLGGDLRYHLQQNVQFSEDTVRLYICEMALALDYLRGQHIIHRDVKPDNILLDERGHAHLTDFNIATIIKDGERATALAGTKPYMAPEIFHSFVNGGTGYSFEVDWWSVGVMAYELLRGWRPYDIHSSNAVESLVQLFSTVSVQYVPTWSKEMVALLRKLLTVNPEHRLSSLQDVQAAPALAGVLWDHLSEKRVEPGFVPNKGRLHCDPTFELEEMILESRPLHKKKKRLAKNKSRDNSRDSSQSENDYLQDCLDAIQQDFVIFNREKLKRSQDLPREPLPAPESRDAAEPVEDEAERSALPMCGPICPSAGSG

CHEK1 = CHEK1 (Homo sapiens, UniProt O14757)
PFCDPK1 P. falciparum = PFCDPK1 P. falciparum (Plasmodium falciparum, UniProt P62344)
CDK4-cyclinD1 = CDK4-cyclinD1 (Homo sapiens, UniProt P11802)
TEC = TEC (Homo sapiens, UniProt P42680)
CSNK1G3 = CSNK1G3 (Homo sapiens, UniProt Q9Y6M4)
CSNK1G3, sequence (Q9Y6M4 whole entry): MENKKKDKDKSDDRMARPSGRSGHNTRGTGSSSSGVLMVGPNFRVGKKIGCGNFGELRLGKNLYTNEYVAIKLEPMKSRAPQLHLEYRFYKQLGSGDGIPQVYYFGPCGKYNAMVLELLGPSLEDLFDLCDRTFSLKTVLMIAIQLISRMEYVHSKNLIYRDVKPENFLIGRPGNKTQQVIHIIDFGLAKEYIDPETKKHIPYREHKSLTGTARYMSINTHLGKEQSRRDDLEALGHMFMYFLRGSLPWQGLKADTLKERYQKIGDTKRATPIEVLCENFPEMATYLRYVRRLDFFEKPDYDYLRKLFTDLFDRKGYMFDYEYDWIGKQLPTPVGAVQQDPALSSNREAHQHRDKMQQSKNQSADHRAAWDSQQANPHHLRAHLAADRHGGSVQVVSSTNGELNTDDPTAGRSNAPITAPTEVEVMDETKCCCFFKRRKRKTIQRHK

CDK9 = CDK9 (Homo sapiens, UniProt P50750)
EPHB1 = EPHB1 (Homo sapiens, UniProt P54762)
PKMYT1 = PKMYT1 (Homo sapiens, UniProt Q99640)
MAPKAPK2 = target: T2, MAPKAPK2 (Homo sapiens, UniProt P49137)
T2 construct: T7 phage fusion (most assays) or DNA label after HEK293 expression; purchased DiscoveRx (KINOMEscan, LeadHunter Discovery services); host or cells: T7 phage in E. coli (BL21-derived) or HEK293

BLK = BLK (Homo sapiens, UniProt P51451)
ULK2 = target: T3, ULK2 (Homo sapiens, UniProt Q8IYT8)
T3 construct: purchased DiscoveRx (KINOMEscan, LeadHunter Discovery services)

BRSK1 = BRSK1 (Homo sapiens, UniProt Q8TDC3)
[1] = target: T4, TYK2 JH2domain-pseudokinase (Homo sapiens, UniProt P29597)
T4 construct: JH2domain-pseudokinase; purchased DiscoveRx (KINOMEscan, LeadHunter Discovery services)
T4 sequence (P29597 589-875 limits assumed): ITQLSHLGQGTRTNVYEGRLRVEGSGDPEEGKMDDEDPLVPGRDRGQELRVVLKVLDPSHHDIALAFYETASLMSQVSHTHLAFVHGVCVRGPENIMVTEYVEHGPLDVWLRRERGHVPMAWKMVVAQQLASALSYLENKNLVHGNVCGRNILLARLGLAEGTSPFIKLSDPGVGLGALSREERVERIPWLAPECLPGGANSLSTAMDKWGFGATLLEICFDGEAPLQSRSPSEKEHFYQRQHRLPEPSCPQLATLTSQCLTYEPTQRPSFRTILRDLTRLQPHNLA

RIPK5 = RIPK5 (Homo sapiens, UniProt Q6XUX3)
RIPK5, sequence (Q6XUX3 whole entry): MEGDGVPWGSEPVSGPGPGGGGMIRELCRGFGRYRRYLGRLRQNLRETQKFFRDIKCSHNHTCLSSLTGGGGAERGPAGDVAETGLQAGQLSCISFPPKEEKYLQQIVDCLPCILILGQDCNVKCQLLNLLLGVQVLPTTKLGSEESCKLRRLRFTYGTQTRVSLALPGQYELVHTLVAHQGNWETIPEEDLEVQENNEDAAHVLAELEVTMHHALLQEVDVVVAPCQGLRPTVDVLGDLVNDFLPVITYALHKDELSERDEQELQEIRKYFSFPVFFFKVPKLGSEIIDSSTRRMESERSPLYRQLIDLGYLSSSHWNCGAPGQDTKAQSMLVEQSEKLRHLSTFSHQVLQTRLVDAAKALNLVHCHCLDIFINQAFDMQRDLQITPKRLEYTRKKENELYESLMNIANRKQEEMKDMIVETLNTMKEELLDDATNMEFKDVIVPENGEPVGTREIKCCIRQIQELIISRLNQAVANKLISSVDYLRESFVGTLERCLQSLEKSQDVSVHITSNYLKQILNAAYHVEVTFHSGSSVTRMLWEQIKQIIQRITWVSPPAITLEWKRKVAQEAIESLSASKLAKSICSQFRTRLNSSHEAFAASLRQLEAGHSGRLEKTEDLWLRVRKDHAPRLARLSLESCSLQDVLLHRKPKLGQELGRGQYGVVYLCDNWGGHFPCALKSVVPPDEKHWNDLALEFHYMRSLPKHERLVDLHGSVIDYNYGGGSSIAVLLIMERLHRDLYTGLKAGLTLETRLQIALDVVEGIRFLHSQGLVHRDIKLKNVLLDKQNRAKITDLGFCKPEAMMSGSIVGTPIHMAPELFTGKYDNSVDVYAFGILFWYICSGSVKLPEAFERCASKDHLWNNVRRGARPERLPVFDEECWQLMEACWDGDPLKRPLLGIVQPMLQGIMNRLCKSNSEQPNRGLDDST

YANK2 = target: T5, YANK2 (Homo sapiens, UniProt Q9NY57)
T5 construct: purchased DiscoveRx (KINOMEscan, LeadHunter Discovery services)
T5 sequence (Q9NY57 whole entry): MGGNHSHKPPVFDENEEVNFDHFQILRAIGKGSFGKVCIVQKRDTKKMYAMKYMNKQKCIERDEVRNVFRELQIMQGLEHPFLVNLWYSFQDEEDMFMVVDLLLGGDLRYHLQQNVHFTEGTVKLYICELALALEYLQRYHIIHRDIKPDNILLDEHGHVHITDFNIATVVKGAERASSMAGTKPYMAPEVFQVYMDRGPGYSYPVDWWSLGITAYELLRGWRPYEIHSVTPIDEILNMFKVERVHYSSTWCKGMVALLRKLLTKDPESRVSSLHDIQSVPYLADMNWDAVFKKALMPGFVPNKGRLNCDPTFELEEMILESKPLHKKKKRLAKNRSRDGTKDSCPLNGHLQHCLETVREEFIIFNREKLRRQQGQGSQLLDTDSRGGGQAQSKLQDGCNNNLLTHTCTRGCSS

IKK-beta = IKK-beta (Homo sapiens, UniProt O14920)
CLK3 = CLK3 (Homo sapiens, UniProt P49761)
[2] = target: JAK3 (JH1domain-catalytic) (Homo sapiens, UniProt P52333)
ULK1 = target: T6, ULK1 (Homo sapiens, UniProt O75385)
T6 construct: purchased DiscoveRx (KINOMEscan, LeadHunter Discovery services)

ACVRL1 = ACVRL1 (Homo sapiens, UniProt P37023)
ACVRL1, sequence (P37023 22-503): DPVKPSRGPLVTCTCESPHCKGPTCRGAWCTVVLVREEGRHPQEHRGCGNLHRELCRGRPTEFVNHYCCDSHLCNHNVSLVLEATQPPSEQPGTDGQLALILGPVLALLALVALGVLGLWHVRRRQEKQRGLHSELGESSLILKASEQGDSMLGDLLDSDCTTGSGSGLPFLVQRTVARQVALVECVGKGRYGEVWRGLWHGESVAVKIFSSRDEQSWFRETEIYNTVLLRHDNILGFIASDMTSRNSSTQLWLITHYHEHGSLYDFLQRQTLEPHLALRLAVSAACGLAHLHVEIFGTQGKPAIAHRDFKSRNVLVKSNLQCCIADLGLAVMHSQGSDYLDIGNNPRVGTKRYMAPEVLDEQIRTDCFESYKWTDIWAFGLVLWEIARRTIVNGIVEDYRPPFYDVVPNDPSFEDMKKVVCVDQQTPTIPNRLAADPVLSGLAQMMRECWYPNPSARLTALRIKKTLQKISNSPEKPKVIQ

MYO3B = MYO3B (Homo sapiens, UniProt Q8WXR4)
NDR2 = NDR2 (Homo sapiens, UniProt Q9Y2H1)
MAP3K1 = target: T7, MAP3K1 (Homo sapiens, UniProt Q13233)
T7 construct: T7 phage fusion (most assays) or DNA label after HEK293 expression; purchased DiscoveRx (KINOMEscan, LeadHunter Discovery services); host or cells: T7 phage in E. coli (BL21-derived) or HEK293

FLT3 (R834Q) = FLT3 (R834Q) (Homo sapiens, UniProt P36888, R834Q)
CAMK2A = CAMK2A (Homo sapiens, UniProt Q9UQM7)
YSK4 = target: T8, YSK4 (Homo sapiens, UniProt Q56UN5)
T8 construct: purchased DiscoveRx (KINOMEscan, LeadHunter Discovery services)

ALK = ALK (Homo sapiens, UniProt Q9UM73)
PIK3CA = PIK3CA (Homo sapiens, UniProt P42336)
MARK3 = MARK3 (Homo sapiens, UniProt P27448)
ERN1 = ERN1 (Homo sapiens, UniProt O75460)
MEK4 = MEK4 (Homo sapiens, UniProt P45985)
RAF1 = RAF1 (Homo sapiens, UniProt P04049)
RAF1, sequence (P04049 whole entry): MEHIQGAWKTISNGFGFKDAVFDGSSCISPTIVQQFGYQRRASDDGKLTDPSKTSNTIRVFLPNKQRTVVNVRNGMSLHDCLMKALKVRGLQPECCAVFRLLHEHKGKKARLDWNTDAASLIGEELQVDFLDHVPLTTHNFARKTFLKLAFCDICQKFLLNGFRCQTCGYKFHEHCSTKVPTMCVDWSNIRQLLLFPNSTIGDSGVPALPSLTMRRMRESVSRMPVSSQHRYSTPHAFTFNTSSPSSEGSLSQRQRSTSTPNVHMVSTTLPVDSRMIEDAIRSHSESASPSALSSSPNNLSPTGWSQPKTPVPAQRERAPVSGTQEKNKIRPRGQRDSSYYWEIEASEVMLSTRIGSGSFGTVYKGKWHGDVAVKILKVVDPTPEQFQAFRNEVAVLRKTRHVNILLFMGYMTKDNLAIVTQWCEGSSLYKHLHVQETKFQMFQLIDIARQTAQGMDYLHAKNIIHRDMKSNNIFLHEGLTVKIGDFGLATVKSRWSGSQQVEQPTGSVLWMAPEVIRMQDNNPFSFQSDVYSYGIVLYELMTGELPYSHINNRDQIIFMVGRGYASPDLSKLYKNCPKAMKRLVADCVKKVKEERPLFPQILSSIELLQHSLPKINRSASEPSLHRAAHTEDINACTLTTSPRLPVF

ACVR1, sequence (Q04771 21-509): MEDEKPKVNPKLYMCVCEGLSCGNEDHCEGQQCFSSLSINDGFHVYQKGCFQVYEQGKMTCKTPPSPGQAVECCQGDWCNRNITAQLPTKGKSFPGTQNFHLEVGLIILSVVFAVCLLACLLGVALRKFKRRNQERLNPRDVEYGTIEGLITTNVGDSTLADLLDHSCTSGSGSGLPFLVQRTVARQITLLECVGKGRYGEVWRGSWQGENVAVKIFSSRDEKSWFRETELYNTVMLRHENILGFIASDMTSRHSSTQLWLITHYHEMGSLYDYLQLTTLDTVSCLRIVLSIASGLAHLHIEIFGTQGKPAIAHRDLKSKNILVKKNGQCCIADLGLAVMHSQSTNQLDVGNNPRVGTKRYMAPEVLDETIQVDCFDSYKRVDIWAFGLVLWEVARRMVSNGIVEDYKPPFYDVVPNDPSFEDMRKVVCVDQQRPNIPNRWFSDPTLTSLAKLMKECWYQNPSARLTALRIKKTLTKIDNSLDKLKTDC
BRSK2, sequence (Q8IWQ3 whole entry): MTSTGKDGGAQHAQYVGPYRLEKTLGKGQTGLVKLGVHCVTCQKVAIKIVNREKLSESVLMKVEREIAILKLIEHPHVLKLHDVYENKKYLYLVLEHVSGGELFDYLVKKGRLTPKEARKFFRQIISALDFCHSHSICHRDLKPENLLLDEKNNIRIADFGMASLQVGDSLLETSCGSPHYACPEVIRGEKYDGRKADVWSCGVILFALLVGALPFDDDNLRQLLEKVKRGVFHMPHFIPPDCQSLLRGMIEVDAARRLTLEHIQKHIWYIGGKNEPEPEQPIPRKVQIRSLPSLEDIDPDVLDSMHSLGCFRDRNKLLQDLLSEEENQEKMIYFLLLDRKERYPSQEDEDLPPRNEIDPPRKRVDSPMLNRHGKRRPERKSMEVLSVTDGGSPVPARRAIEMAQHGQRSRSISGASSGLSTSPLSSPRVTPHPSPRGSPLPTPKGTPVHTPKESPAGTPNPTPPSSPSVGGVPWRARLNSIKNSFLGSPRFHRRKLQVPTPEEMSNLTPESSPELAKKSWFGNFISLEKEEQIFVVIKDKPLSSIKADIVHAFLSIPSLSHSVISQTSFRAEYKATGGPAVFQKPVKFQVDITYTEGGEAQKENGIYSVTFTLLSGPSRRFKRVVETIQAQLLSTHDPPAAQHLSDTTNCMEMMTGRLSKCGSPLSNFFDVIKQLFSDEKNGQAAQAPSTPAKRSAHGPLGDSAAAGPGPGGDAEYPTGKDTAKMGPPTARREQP

Nc1ncc(-c2nc3ccccc3o2)c(-c2ccncc2)n1 [Comparative Compound 324, 5-(1,3-benzoxazol-2-yl)-4-(pyridine-4-yl)pyrimidin-2-amine]
remaining binding at 10 µM (PFTAIRE2): 100%
remaining binding at 10 µM (ACVR1): 100%
remaining binding at 10 µM (FER): 100%
remaining binding at 10 µM (BRAF): 77%
remaining binding at 10 µM (BRSK2): 100%
remaining binding at 10 µM (ERK2): 99%
remaining binding at 10 µM (CSNK2A2): 79%
remaining binding at 10 µM (PAK6): 100%
remaining binding at 10 µM (YANK3): 97%
remaining binding at 10 µM (CHEK1): 100%
remaining binding at 10 µM (PFCDPK1 P. falciparum): 78%
remaining binding at 10 µM (CDK4-cyclinD1): 85%
remaining binding at 10 µM (TEC): 94%
remaining binding at 10 µM (CSNK1G3): 83%
remaining binding at 10 µM (CDK9): 83%
remaining binding at 10 µM (EPHB1): 86%
remaining binding at 10 µM (PKMYT1): 100%
remaining binding at 10 µM (MAPKAPK2): 100%
remaining binding at 10 µM (BLK): 80%
remaining binding at 10 µM (ULK2): 100%
remaining binding at 10 µM (BRSK1): 98%
remaining binding at 10 µM [1]: 66%
remaining binding at 10 µM (RIPK5): 96%
remaining binding at 10 µM (YANK2): 70%
remaining binding at 10 µM (IKK-beta): 99%
remaining binding at 10 µM (CLK3): 99%
remaining binding at 10 µM [2]: 74%
remaining binding at 10 µM (ULK1): 93%
remaining binding at 10 µM (ACVRL1): 100%
remaining binding at 10 µM (MYO3B): 100%
remaining binding at 10 µM (NDR2): 96%
remaining binding at 10 µM (MAP3K1): 85%
remaining binding at 10 µM (FLT3 (R834Q)): 97%
remaining binding at 10 µM (CAMK2A): 99%
remaining binding at 10 µM (YSK4): 88%
remaining binding at 10 µM (ALK): 89%
remaining binding at 10 µM (PIK3CA): 100%
remaining binding at 10 µM (MARK3): 100%
remaining binding at 10 µM (ERN1): 88%
remaining binding at 10 µM (MEK4): 70%
remaining binding at 10 µM (RAF1): 100%

CNc1c(C(N)=O)c2ccccn2c1C(=O)c1ccc(F)cc1 [Compound A, 2-methyl-amino-3-[(4-fluorophenyl)carbonyl]indolizine-1-carboxamide]
remaining binding at 10 µM (PFTAIRE2): 100%
remaining binding at 10 µM (ACVR1): 95%
remaining binding at 10 µM (FER): 98%
remaining binding at 10 µM (BRAF): 93%
remaining binding at 10 µM (BRSK2): 94%
remaining binding at 10 µM (ERK2): 78%
remaining binding at 10 µM (CSNK2A2): 93%
remaining binding at 10 µM (PAK6): 86%
remaining binding at 10 µM (YANK3): 100%
remaining binding at 10 µM (CHEK1): 85%
remaining binding at 10 µM (PFCDPK1 P. falciparum): 0.9%
remaining binding at 10 µM (CDK4-cyclinD1): 47%
remaining binding at 10 µM (TEC): 88%
remaining binding at 10 µM (CSNK1G3): 85%
remaining binding at 10 µM (CDK9): 74%
remaining binding at 10 µM (EPHB1): 69%
remaining binding at 10 µM (PKMYT1): 52%
remaining binding at 10 µM (MAPKAPK2): 100%
remaining binding at 10 µM (BLK): 49%
remaining binding at 10 µM (ULK2): 95%
remaining binding at 10 µM (BRSK1): 100%
remaining binding at 10 µM [1]: 86%
remaining binding at 10 µM (RIPK5): 79%
remaining binding at 10 µM (YANK2): 78%
remaining binding at 10 µM (IKK-beta): 90%
remaining binding at 10 µM (CLK3): 94%
remaining binding at 10 µM [2]: 100%
remaining binding at 10 µM (ULK1): 86%
remaining binding at 10 µM (ACVRL1): 100%
remaining binding at 10 µM (MYO3B): 100%
remaining binding at 10 µM (NDR2): 85%
remaining binding at 10 µM (MAP3K1): 76%
remaining binding at 10 µM (FLT3 (R834Q)): 95%
remaining binding at 10 µM (CAMK2A): 70%
remaining binding at 10 µM (YSK4): 73%
remaining binding at 10 µM (ALK): 90%
remaining binding at 10 µM (PIK3CA): 89%
remaining binding at 10 µM (MARK3): 88%
remaining binding at 10 µM (ERN1): 84%
remaining binding at 10 µM (MEK4): 43%
remaining binding at 10 µM (RAF1): 95%
